# From US12122816B2, “Long acting peptide tyrosine tyrosine (PYY) analogs and methods of use” (Intarcia Therapeutics, Inc., priority 2020, dated 2024)
# Read-outs that look alike come from different tables or passages of the source.
# Experiments:
# [1] = target: T1, human Y2 receptor (Homo sapiens, UniProt P49146); assay: NPY receptor functional assay (cAMP, HEK-CNG cells, ACTOne membrane potential dye); type: cell-based; details: NPY2R pEC50, HEK-CNG cells; standard PYY(3-36); species (human or rat) not given
# T1 sequence (P49146 1-381): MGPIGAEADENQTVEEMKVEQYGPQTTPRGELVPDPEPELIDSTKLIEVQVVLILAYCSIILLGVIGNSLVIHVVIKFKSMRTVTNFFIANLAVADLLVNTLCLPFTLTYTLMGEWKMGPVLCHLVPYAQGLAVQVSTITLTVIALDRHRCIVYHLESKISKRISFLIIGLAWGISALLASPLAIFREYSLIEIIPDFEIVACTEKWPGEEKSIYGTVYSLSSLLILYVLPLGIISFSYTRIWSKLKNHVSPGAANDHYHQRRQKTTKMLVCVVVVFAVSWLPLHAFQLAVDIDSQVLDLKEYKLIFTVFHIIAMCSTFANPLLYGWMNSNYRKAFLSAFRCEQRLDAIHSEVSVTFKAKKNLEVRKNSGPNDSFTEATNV
# Outline: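 HEK-CNG cells stably expressing each human receptor; peptides added in triplicate for 50 minutes at room temperature, with agonism read as decreased isoproterenol-induced membrane potential dye signal (final/initial read).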
# [2] = Solubility in DI water at room temperature (visual inspection); type: physicochemical; details: DI water, TFA salt form, read-out: Solubility (in Water, RT)
# Description: The analog polypeptides described herein were tested for solubility in saline or in aqueous (DI water) at room temperature. Samples were visually inspected for clarity of the sample, any appearance of turbidity or haziness.
# [3] = In vitro metabolic stability in kidney brush border membranes (kBBM); type: in vitro ADME; details: 1 mcM peptide, 37° C.
# Description: In vitro incubations in kidney brush border membrane (kBBM) preparations were used to characterize the ability of peptides to resist degradation by proteases and peptidases in the systemic circulation. kBBM were selected because they contain a high concentration of a diverse set of proteases and peptidases, many of which are present throughout the body.
# Brush border membranes from rat and human kidney tissue were prepared via centrifugation and stored at −70° C. Thawed stocks of rat or human kBBM were diluted to the appropriate concentration in 25 mM HEPES buffer (pH 7.4) containing 1% casein and aliquoted into a 96-well plate. The kBBM solutions were pre-warmed for 10 minutes at 37° C. […] The final concentration of kBBM in each incubation was 50 mcg protein/mL. Reactions were maintained at 37° C. in a shaking water bath. […] Quenched samples were centrifuged at 2178×g for 10 min and then a portion of the supernatants were transferred to a clean 96-well plate and diluted 1:1 with water. Samples were analyzed by UPLC-MS/MS.
# [4] = target: T2, human Y1 receptor (Homo sapiens, UniProt P25929); assay: NPY receptor functional assay (cAMP, HEK-CNG cells, ACTOne membrane potential dye); type: cell-based
# T2 sequence (P25929 1-384): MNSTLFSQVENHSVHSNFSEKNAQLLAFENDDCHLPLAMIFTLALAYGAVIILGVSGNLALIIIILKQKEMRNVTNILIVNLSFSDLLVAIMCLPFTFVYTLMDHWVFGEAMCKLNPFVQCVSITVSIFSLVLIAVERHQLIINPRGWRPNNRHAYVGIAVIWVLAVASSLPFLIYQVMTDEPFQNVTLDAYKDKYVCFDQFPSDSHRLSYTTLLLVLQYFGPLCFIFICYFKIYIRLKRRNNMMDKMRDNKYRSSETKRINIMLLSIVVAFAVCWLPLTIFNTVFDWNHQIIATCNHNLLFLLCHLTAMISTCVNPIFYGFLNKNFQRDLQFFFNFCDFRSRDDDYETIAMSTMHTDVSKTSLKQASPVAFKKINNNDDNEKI
# Excerpt: The NPY family of G-protein coupled receptors include Y1, Y2, Y4, and Y5 in humans and rats. […] Following agonist binding, the receptor-G protein complex activates a downstream intracellular signaling cascade which leads to inhibition of adenylate cyclase and a reduction in intracellular cAMP levels.
# HEK-CNG cells stably expressing the human or rat Y1, Y2, Y4 or Y5 receptors (Codex Biosolutions) were used to characterize the functional potency of peptide agonists using the ActOne™ membrane potential dye kit (Codex Biosolutions). In addition to each NPY receptor, each cell line encodes a proprietary exogenous Cyclic Nucleotide-Gated (CNG) channel (Codex Biosolutions). The channel is activated by elevated intracellular levels of cAMP, resulting in ion flux and cell membrane depolarization which can be detected with a calcium sensitive dye or fluorescent membrane potential (MP) dye. Cells were carried in growth media containing 90% DMEM, 10% FBS, 250 mcg/mL G418 and 1 mcg/mL puromycin for no more than 15 passages.
# Prior to testing, cells were counted and dispensed at 14,000 cells per well (Y1, Y4 and Y5) or 28,000 cells per well (Y2) into black 384 well Poly-D-Lysine plates at 20 mcL per well. Covered plates were then incubated at room temperature for 30 minutes followed by an overnight incubation at 37° C. in 5% C02. The following day, media was removed and wells were washed once with 40 mcL Dulbecco's phosphate buffered saline. […] Ten microliters of experimental peptide or peptide standard was added in triplicate to wells and incubated for 50 minutes at room temperature in the dark. Following this incubation step, plates were read again as before (final read).
# NPY receptor activation, leading to a reduction in intracellular cAMP levels, is detected as a decrease in isoproteranol induced fluorescent signal. Peptide standard and experimental values were initially transformed in excel using the formula: final read/initial read. […] Normalized data was analyzed from triplicate tests and used to estimate the EC50 for each test peptide on each receptor. Data was fit in GraphPad Prism software (v8.2.1) using a 3-parameter logistic curve model: Y=Bottom+(Top−Bottom)/(1+10^((LogEC50−X))). EC50 values were converted to pEC50 values using the formula: pEC50=−Log(EC50).
# [5] = Stability in water or saline (1 mg/ml) at 37° C., purity by LC/MS and HPLC; type: physicochemical; details: TFA salt form
smiles,measurement,setting,value
CC(C)C[C@H](NC(=O)[C@H](Cc1ccc(O)cc1)NC(=O)[C@H](Cc1c[nH]cn1)NC(=O)[C@H](CCCNC(=N)N)NC(=O)[C@H](CC(C)C)NC(=O)[C@H](CC(=O)O)NC(=O)[C@@H](CCCCNC(=O)CC[C@H](NC(=O)CC[C@H](NC(=O)CCCCCCCCCCCCCCCCCCC(=O)O)C(=O)O)C(=O)O)NC(=O)[C@H](Cc1ccc(O)cc1)NC(=O)[C@H](Cc1ccc(O)cc1)NC(=O)[C@H](CCCNC(=N)N)NC(=O)[C@H](CC(N)=O)NC(=O)[C@H](Cc1c[nH]c2ccccc12)NC(=O)[C@H](CCC(=O)O)NC(=O)[C@H](CCC(=O)O)NC(=O)[C@@H]1CCCN1C(=O)[C@H](CO)NC(=O)[C@H](C)NC(=O)[C@H](CC(=O)O)NC(=O)[C@H](CCCCN)NC(=O)CNC(=O)[C@@H]1CCCN1C(=O)[C@H](C)NC(=O)[C@H](CCC(=O)O)NC(=O)[C@@H]1CCCN1C(=O)[C@H](CCCCN)NC(=O)[C@@H]1CCCN1)C(=O)N[C@@H](CC(N)=O)C(=O)N[C@@H](Cc1c[nH]c2ccccc12)C(=O)N[C@@H](CC(C)C)C(=O)N[C@H](C(=O)N[C@@H](CCCNC(=N)N)C(=O)N[C@@H](CCC(N)=O)C(=O)N[C@@H](CCCNC(=N)N)C(=O)N[C@@H](Cc1ccccc1)C(N)=O)[C@@H](C)O [Compound A14],EC50,[1],0.0794 nM
same,solubility,[2],79 mg/mL
same,half-life at 1 mcM,"[3]; pH 7.4, human kBBM 50 mcg protein/mL, read-out: hkBBM t½ (converted)",> 12 h
same,half-life at 1 mcM,"[3]; pH 7.4, rat kBBM 50 mcg protein/mL, read-out: rkBBM t½",> 12 h
same,EC50,[4],3.16 nM
same,"Stability (37° C./RT, T0: Mar. 25, 2020)",[5],94.2
